≈ marks a conversion by molar mass, not a printed value. Residues, ends and D or L forms follow the SMILES beside them.
Columns and labels:
[1] = tested on: S. epidermidis biofilm matrix; experiment: Confocal laser scanning microscopy of biofilm formation (AAA model); type: cell-based, Staphylococcus epidermidis; details: at MBIC50 (7.81 µg/mL), 24 h; p-value < 0.001
Description: An Amsterdam active attachment (AAA) model was used to assess the effectiveness of BiF2_5K7K to inhibit biofilm formation as previously described. In a 24-well microplate, various concentrations of BiF2_5K7K were incubated overnight with 10^7 CFU/mL of S. epidermidis. The plate was then covered with a sanitary stainless-steel lid containing double-glass coverslips. Following 24 h of incubation at 37°C, the biofilms were washed, and then […] green Alexa-ConA (Sigma-Aldrich, USA) was applied for 30 min to stain the biofilms. After staining, biofilms were fixed for 3 h with 2.5% glutaraldehyde. Biofilm images were acquired using a confocal laser scanning microscope (CLSM; Carl-Zeiss/LSM800, Zeiss, Germany). The fluorescence intensity of each test was analysed using ZEN 2.1 (blue edition) software.

[2] = tested on: Salmonella Typhimurium ATCC 13311; experiment: Broth microdilution MIC / MBC; type: cell-based; details: 24 h, 37°C
Description: (§1) The minimal inhibitory concentrations (MICs) of peptide derivatives versus planktonic bacteria were assessed using a modification of the broth microdilution assay previously described in the National Committee for Clinical Laboratory Standards (NCCLS). In brief, bacteria at mid-logarithmic growth were collected by centrifugation at 2,500 × g for 5 min. Subsequently, the pellet was resuspended and adjusted in Mueller-Hinton Broth (MHB; BD Bacto™, USA) to an OD620 of 0.05. Fifty µL of bacterial suspensions was transferred to 96-well microplates. Later, 50 µL of peptide derivatives at 0.98–250 µg/mL in 10 mM PBS, was added to wells and incubated for 24 h at 37°C with continuous shaking at 220 rpm. […] The experiments were done in three technical replicates and repeated independently.
(§2) To determine minimal bactericidal concentrations (MBCs) of the peptides, 50 µL of supernatant from non-turbid wells was plated on TSA, and the number of colony-forming units (CFUs) was observed after 24 h of incubation at 37°C. MBC was defined as the minimum concentration of peptide at which no bacterial colony was observed on the plate.

[3] = tested on: Listeria monocytogenes 10403s; experiment: Broth microdilution MIC / MBC; type: cell-based; details: 24 h, 37°C
Description: as §1, §2

[4] = tested on: Pseudomonas aeruginosa ATCC 27853; experiment: Broth microdilution MIC / MBC; type: cell-based; details: 24 h, 37°C
Description: as §1, §2

[5] = tested on: Escherichia coli ATCC 25922; experiment: Broth microdilution MIC / MBC; type: cell-based; details: 24 h, 37°C
Description: as §1, §2

[6] = tested on: Staphylococcus epidermidis ATCC 35984; experiment: Broth microdilution MIC / MBC; type: cell-based; details: plating of non-turbid wells on TSA, 24 h, 37°C
Description: as §1, §2

[7] = tested on: Bacillus cereus ATCC 11778; experiment: Broth microdilution MIC / MBC; type: cell-based; details: 24 h, 37°C
Description: as §1, §2

[8] = tested on: Acinetobacter baumanii MT strain; experiment: Broth microdilution MIC / MBC; type: cell-based; details: 24 h, 37°C
Description: as §1, §2

[9] = tested on: Staphylococcus aureus ATCC 25923; experiment: Broth microdilution MIC / MBC; type: cell-based; details: 24 h, 37°C
Description: as §1, §2

[10] = tested on: S. epidermidis biofilm formation genes (ica, agr); experiment: Transcriptional analysis, real-time RT-PCR; type: cell-based, Staphylococcus epidermidis; details: at MBIC50, 24 h
Description: The expression level of S. epidermidis biofilm formation gene was investigated using a real-time reverse transcription-polymerase chain reaction. In brief, total RNA of S. epidermidis biofilm, both untreated and treated with BiF2_5K7K (at MBIC50 for 24 h), was extracted by a RNeasy PowerBiofilm Kit (Qiagen, USA) and immediately reverse transcribed to cDNA by iScript reserve transcription supermix (Biolabs, UK). RNAprotect Bacteria Reagent (Qiagen, USA) was used to preserve RNA during isolation. Remaining DNA was removed by treatment with DnaseI (Biolabs, UK). Real-time RT-PCR was done in duplicate using iTaq Universal SYBR Green Supermix (Bio-Rad, USA) with 5 ng of cDNA and […] of forward and reverse primers (Table S1) using a CFX96 Real-Time PCR Detection System (Bio-Rad, USA). The cycling condition was started with an initial denaturation at 95°C for 2 min, followed by 50 amplification cycles consisting of 95°C for 30 s, 56°C for 1 min, and 72°C for 1 min. Subsequently, a melting curve was generated from 65°C to 95°C at intervals of 1 s at the end of each run. To analyse the relative quantitation of gene expression, 2^− ΔΔCt method was used, and 16S ribosomal subunit (rRNA) was served as the reference or housekeeping gene.

[11] = tested on: mature S. epidermidis biofilm; experiment: Confocal laser scanning microscopy of mature biofilm; type: cell-based, Staphylococcus epidermidis
Description: The effect of BiF2_5K7K against mature biofilm was also investigated. In short, overnight cultures of S. epidermidis were diluted to 10^7 CFU/mL with TSB and further incubated at 37°C for 24 h to form biofilms. Next, wells were rinsed with sterile water and mature biofilms was treated with BiF2_5K7K at concentration of MBEC50 and further incubated for 24 h. Subsequently, biofilms were washed again, then stained with green Alexa-ConA and LIVE/DEADTM BacLight™ Bacterial Viability Kit (Invitrogen™, Thermo Fisher, USA) for 15 min. After staining, 2.5% glutaraldehyde was used to fixed biofilms, then observed under CLSM as described above.

[12] = tested on: human lung fibroblast MRC-5 cell lines (ATCC CCL-171); experiment: MTT cytotoxicity assay; type: cell-based; details: MRC-5, 250 µg/mL (maximum concentration tested), 24 h
Description: The toxicity of peptide BiF2_5K7K against human lung fibroblast MRC-5 cell lines (ATCC CCL-171) was investigated by MTT colorimetric assay. Briefly, MRC-5 cells were cultured in Minimum Essential Medium [MEM; supplemented with 10% heat-inactivated FBS and 1% Penicillin-Streptomycin] in 5% CO2 at 37°C. Following an overnight incubation, MRC-5 cells were diluted to 10,000 cells/well and placed in 96-well microplates. Subsequently, they were exposed to BiF2_5K7K at 0.98 to 250 µg/mL. After incubation for 24 h, MTT solution (0.4 mg/mL) was added to each well and incubated for an additional 3 h under 5% CO2 at 37°C. The supernatant was then removed and 100 µL DMSO added, and absorbance was measured at 570 nm using a microplate reader.

[13] = broth microdilution, MHB, 0.98-250 µg/mL, visible inspection
[14] = plating of non-turbid wells on TSA

## CC[C@H](C)[C@H](NC(=O)[C@H](CCCCN)NC(=O)[C@H](CCCCN)NC(=O)[C@@H](NC(=O)[C@H](CC(C)C)NC(=O)[C@@H](N)Cc1ccccc1)C(C)C)C(=O)N[C@@H](CCCCN)C(=O)N[C@@H](CCCCN)C(=O)N[C@H](C(=O)N[C@@H](CC(C)C)C(=O)N[C@@H](CCCNC(=N)N)C(=O)N[C@@H](CCCNC(=N)N)C(N)=O)[C@@H](C)CC [BiF2_5K7K] (H-FLVKKIKKILRR-NH2; N-terminus assumed)
[1]
  fluorescence intensity of Alexa Fluor 488 stained biofilm vs untreated control: significantly lower
[2]; [13]
  MIC: 31.25 µg/mL (≈ 20.3 µM)
[2]; [14]
  MBC: 62.5 µg/mL (≈ 40.6 µM)
[3]; [13]
  MIC: 31.25 µg/mL (≈ 20.3 µM)
[3]; [14]
  MBC: 62.5 µg/mL (≈ 40.6 µM)
[4]; [13]
  MIC: 62.5 µg/mL (≈ 40.6 µM)
[4]; [14]
  MBC: 125 µg/mL (≈ 81.1 µM)
[5]; [13]
  MIC: 250 µg/mL (≈ 162 µM)
[5]; [14]
  MBC: 250 µg/mL (≈ 162 µM)
[6]
  MBC: 31.25 µg/mL (≈ 20.3 µM)
[7]; [13]
  MIC: 250 µg/mL (≈ 162 µM)
[7]; [14]
  MBC: 250 µg/mL (≈ 162 µM)
[8]; [13]
  MIC: 31.2 µg/mL (≈ 20.3 µM)
[8]; [14]
  MBC: 31.2 µg/mL (≈ 20.3 µM)
[9]; [13]
  MIC: > 250 µg/mL
[9]; [14]
  MBC: > 250 µg/mL
[10]
  agrC and agrA gene expression: neither agrC nor agrA gene expression changed at all
  expression of quorum-sensing genes agrD and agrB vs untreated control: reduced
  levels of icaC or icaR genes: no alteration
[10]; 2^-ΔΔCt, 16S rRNA reference, significantly upregulated
  relative expression level of icaA, icaD and icaB genes: greater than 1
[11]; at MBEC50, 24 h, p-value < 0.01
  fluorescence intensity ratio (live to dead cells), treated vs untreated: significant difference
[11]; at MBEC50, 24 h treatment
  mature biofilm matrix (Alexa-ConA fluorescence intensity): significant decrease
[12]
  cell viability: > 99%

Reference: article PMC11100219, “Dual-function antimicrobial-antibiofilm peptide hybrid to tackle biofilm-forming Staphylococcus epidermidis” (Annals of Clinical Microbiology and Antimicrobials, 2024)
